These molecules were tested against Dual specificity tyrosine-phosphorylation-regulated kinase 1A (Homo sapiens, UniProt Q13627) (assay: DYRK1A Kinase Assay).
Protocol: Each compound was dissolved in DMSO as a 10 mM stock and used to prepare compound source plates. Serial dilution (1:3, 11-point dose-response curves from 10 μM to 0.00016 μM) and compound transfer was performed using the ECHO 550 (Labcyte, Sunnyvale, CA) into 1536-well black-walled round bottom plates (Corning).The DYRK1A kinase assay was run using the Ser/Thr 18 peptide Z-lyte assay kit according to manufacturer's instructions (Life Technologies—a Division of Thermo-Fisher). This is a non-radioactive assay using fluorescence resonance energy transfer (FRET) between coumarin and fluorescein to detect kinase activity which is represented as a ratio of coumarin emission/fluorescein emission.Briefly, recombinant DYRK1A kinase, ATP and Ser/Thr peptide 18 were prepared in 1× Kinase buffer to final concentrations of 0.25 μg/mL, 15 μM, and 4 μM respectively. The mixture was allowed to incubate with the representative compounds for one hour at room temperature. All reactions were performed in duplicate. Unphosphorylated (“0% Control”) and phosphorylated (“100% control”) forms of Ser/Thr 18 served as control reactions. Additionally, an 11-point dose-response curve of Staurosporine (1 uM top) was run to serve as a positive compound control.After incubation, Development Reagent A was diluted in Development Buffer then added to the reaction and allowed to further incubate for one hour at room temperature. The plate was read at Ex 400 Em 455 to detect the coumarin signal and Ex 400 Em 520 to measure the signal (EnVision Multilabel Plate Reader, PerkinElmer).
`C[C@]1(O)CC[C@H](Nc2ncc3c(-c4ccn5nccc5c4)c[nH]c3n2)CC1` [US20250129104, Compound 2238] was tested, and the EC50 was 35.2 nM. In the case of `COc1nc(N[C@H](C)C(F)(F)F)c2c(-c3ccc4nc(C)n(CC(F)F)c4n3)c[nH]c2n1` [US20250129104, Compound 2817], the EC50 is reported as 5440 nM. In the case of `COc1nc(N[C@H]2CC[C@@](C)(O)CC2)nc2[nH]cc(-c3ccc4ncnn4c3)c12` [US20250129104, Compound 3053], the EC50 is reported as 1.4 nM.

— BindingDB's records for patent US20250129104 (Biosplice Therapeutics, 2025)
